# In paper PMC10814725, “In Vitro Anti-Inflammatory Study of Limonoids Isolated from Chisocheton Plants” (Current Issues in Molecular Biology, 2024):
# Read-outs that look alike come from different tables or passages of the source.
# Legend:
# [1] = Cell viability by CCK-8, HEK-Blue hTLR4 cells; assay type: cell-based; conditions: human
# Method: (§1) The viability of HEK-Blue^TM hTLR4, […], and THP-1 cells was evaluated using the Dojindo Cell Counting Kit-8 (CCK-8) according to the manufacturer’s instructions. The viability of HEK-Blue^TM hTLR4 and THP-1 cells was assessed under identical conditions to the corresponding assay treatments. HEK-Blue^TM hTLR4 cells (2 × 10^4 cells/well) were seeded in 96-well plates and serum-starved for 24 h at 37 °C in a 5% CO2 atmosphere. After incubation, the culture medium was aspirated, and the cells were washed with saline. High-glucose D-MEM supplemented with 0.1% FBS and 1% penicillin–streptomycin was added and pretreated with or without the 17 limonoids at a concentration of 20 µM for 1 h, followed by LPS addition at a concentration of 10 ng/mL. After 18 h of incubation, a 10% (v/v) CCK-8 solution was added to each well and incubated at 37 °C for 1 h, and cell viability was calculated.
# [2] = Cell viability by CCK-8, THP-1 cells; assay type: cell-based; conditions: human, PMA-differentiated THP-1 cells; for CC50 at 18 h: concentration causing 50% cytotoxicity against THP-1 cells
# Method: as §1
# The THP-1 cells at 5 × 10^4 cells/well were differentiated for 24 h in the presence of PMA (0.5 μM solution in medium). After 24 h of incubation, the culture medium was removed from the 96-well plate and the cells were washed with PBS. Fresh RPMI-1640 medium supplemented with 0.1% FBS and 1% penicillin–streptomycin was added to each well and incubated at 37 °C for overnight. The cells were pretreated with 17 limonoids at the corresponding concentration for 1 h followed by the addition of LPS (10 ng/mL) and incubated at 37 °C for 18 h. Furthermore, CCK-8 solution was added to each well with a final concentration was 10% (v/v) and incubated at 37 °C. After 1 h, the absorbance of each well was measured at […] by using a microplate reader (BioTek Cytation 5 Cell Imaging Multimode Reader). Cell viability was calculated using the following formula: % Cell viability=(Absorbance of sample−Absorbance of Background)/(Absorbance of control−Absorbance of Background)×100 where the absorbance of the sample is the absorbance of cells treated by the compound with or without LPS, the absorbance of the control is the absorbance of LPS (−)-treated cells, and the background absorbance is the absorbance of a well containing only the medium. The results were expressed as 100% cell viability.
# in vitro = assay type: cell-based; conditions: mouse
# Method: as §1
# phosphorylated-p38 MAPK = assay: Western blotting of phosphorylated-p38 MAPK in LPS-stimulated THP-1 cells; assay type: cell-based, human; conditions: 10 µM, LPS 10 ng/mL, 18 h, compared to LPS (+) group
# Method: THP-1 cells were seeded at a density of 1 × 10^6 cells/well in 24-well plates. The cells were then pretreated with a concentration of 10 µM of compounds 3, 5, 9, or 15 for 1 h. Subsequently, LPS (10 ng/mL) was added to the cells, which were incubated for 18 h. The protein concentrations were determined using a bicinchoninic acid (BCA) assay kit.
# For Western blot analysis, proteins were separated by SDS-PAGE and transferred onto a polyvinylidene fluoride (PVDF) membrane. The membranes were blocked with 2.5% BSA in Tris-buffered saline-Tween (TBST) for 1 h at room temperature. After three washes with TBST, the membranes were incubated with a diluted primary antibody solution (anti-phosphorylated-p38 MAPK or anti-p38 MAPK) at a 1:1000 dilution for 1 h at room temperature. After three washes with TBS-T, the membranes were incubated with a secondary antibody conjugated to horseradish peroxidase (HRP; 1:4000 dilution) for 30 min at room temperature and subsequently detected by chemiluminescence. Finally, the bands were visualized and quantified using an ImageQuant 800 GxP system (Cytiva, MA, USA). The results were expressed as ratios relative to the reference protein β-actin.
# TNF-α = assay: ELISA of TNF-α production in LPS-stimulated THP-1 cells; assay type: cell-based, human; conditions: for IC50: Homo sapiens, THP-1, 18 h, read-out: TNF-α IC50
# [3] = tested on: TNF-α, IL-6, IL-1β, and MCP-1; assay: ELISA of pro-inflammatory markers overall (TNF-α, IL-6, IL-1β, MCP-1) in LPS-stimulated THP-1 cells; assay type: cell-based; conditions: Homo sapiens, read-out: Overall IC50 values for the evaluated pro-inflammatory markers
# Method: (§2) The logarithmic growth phase of THP-1 cells was achieved by seeding in 96-well plates at a density of 5 × 10^4 cells/well and differentiated for 24 h in the presence of PMA (0.5 μM solution in medium). After 24 h of incubation, the culture medium was removed from the 96-well plate and the cells were washed with PBS. Fresh RPMI-1640 medium supplemented with 0.1% FBS and 1% Penicillin–Streptomycin was added to each well and incubated at 37 °C overnight. The cells were pretreated with 17 limonoids at the corresponding concentration for 1 h, followed by the addition of LPS (10 ng/mL) and then incubation at 37 °C for 18 h. Finally, 50 μL of each culture supernatant solution was taken to determine the concentrations of IL-6, MCP-1, and IL-1β using the corresponding commercially available human ELISA kits following the manufacturer’s instructions. The analyte concentration in the supernatant was measured in pg/mL, and the inhibition level was expressed as a fold change compared to the LPS (−) control group. To determine the IC50 value, the dose-response data were normalized to the LPS-stimulated-only group, and the percentage of inhibition was calculated using the following formula: % Inhibition=(Absorbance of LPS+ control−Absorbance of compound treatment with LPS)/(Absorbance of LPS+ control−Absorbance of LPS− control)×100
# (§3) Furthermore, the % inhibition data were interpolated into linear equations to determine the IC50 values.
# MCP-1 = assay: ELISA of MCP-1 production in LPS-stimulated THP-1 cells; assay type: cell-based, human; conditions: Homo sapiens; LPS-stimulated (10 ng/mL) THP-1 cells, 1, 5, 10, 20 µM, 18 h
# Method: as §2, with “Fresh RPMI-1640 medium supplemented with 0.1% FBS and 1% Penicillin–Streptomycin was added to each well and incubated at 37 °C overnight.” left out
# as §3
# IL-6 = assay: ELISA of IL-6 production in LPS-stimulated THP-1 cells; assay type: cell-based, human; conditions: Homo sapiens, THP-1, 18 h, LPS-stimulated (10 ng/mL) THP-1 cells, 1, 5, 10, 20 µM, 18 h
# Method: as §2, with “Fresh RPMI-1640 medium supplemented with 0.1% FBS and 1% Penicillin–Streptomycin was added to each well and incubated at 37 °C overnight.” left out
# as §3
# [4] = Viability Cell (%) HEK-Blue hTLR4 LPS-Induced (10 ng/mL)
# [5] = Viability Cell (%) HEK-Blue hTLR4 Without LPS
# [6] = LPS 10 ng/mL, read-out: Viability Cell (%) THP-1 LPS-Induced (10 ng/mL)
# [7] = without LPS, read-out: Viability Cell (%) THP-1 Without LPS
# [8] = RAW264.7 macrophages, 5 µM, read-out: Viability cell (%) RAW 264.7 5 µM
# [9] = RAW264.7 macrophages, 10 µM, read-out: Viability cell (%) RAW 264.7 10 µM
# [10] = RAW264.7 macrophages, 20 µM, read-out: Viability cell (%) RAW 264.7 20 µM
Compound,"viability at 18 h, 20 µM [1, 4]","viability at 18 h, 20 µM [1, 5]","viability at 18 h, 10 µM [2, 6]","viability at 18 h, 10 µM [2, 7]",viability at 5 µM (in vitro),viability at 10 µM (in vitro),viability at 20 µM (in vitro),other results
"CC1(C)C(=O)C=C[C@]2(C)[C@H]3CC[C@]4(C)C(C(=O)C[C@H]4c4ccoc4)[C@]3(C)[C@H](O)C[C@@H]12 (stereo partly drawn) [Compound 1, 7α-hydroxyneotrichilenone]",> 99.9%,> 99.9%,> 99.9%,> 99.9%,> 99.9%,> 99.9%,> 99.9%,
"CC(=O)O[C@@H]1C[C@H]2C(C)(C)C(=O)C=C[C@]2(C)[C@H]2CC[C@]3(C)C(C(=O)C[C@H]3c3ccoc3)[C@@]21C (stereo partly drawn) [Compound 2, 7α-acetylneotrichilenone]",75.5 ± 13.8%,61.2 ± 1.22%,> 99.9%,> 99.9%,96.2 ± 3.67%,> 99.9%,> 99.9%,
"CC(=O)O[C@H]1[C@@H](OC(C)=O)[C@@]2(C)C3=CC[C@@H](C4=CCOC4=O)[C@]3(C)CC[C@@H]2[C@@]2(C)C=CC(=O)C(C)(C)[C@H]12 [Compound 6, lasiocarpine A]",,,> 99.9%,90.7 ± 3.82%,,,,"viability at 18 h, 20 µM ([1]; 20 µM, 18 h, LPS 10 ng/mL, read-out: Viability Cell (%) HEK-Blue hTLR4 LPS-Induced (10 ng/mL)): 58.3 ± 1.89%; viability at 18 h, 20 µM ([1]; 20 µM, 18 h, without LPS, read-out: Viability Cell (%) HEK-Blue hTLR4 Without LPS): 77.1 ± 2.13%; viability at 5 µM (in vitro; 5 µM, read-out: Viability cell (%) RAW 264.7 5 µM): 103 ± 6.05%; viability at 10 µM (in vitro; 10 µM, read-out: Viability cell (%) RAW 264.7 10 µM): > 99.9%; viability at 20 µM (in vitro; 20 µM, read-out: Viability cell (%) RAW 264.7 20 µM): 96.7 ± 2.14%"
"CC(=O)O[C@H]1[C@@H](OC(C)=O)[C@@]2(C)C3C(=O)C[C@@H](c4ccoc4)[C@]3(C)CC[C@@H]2[C@@]2(C)C=CC(=O)C(C)(C)[C@H]12 (some centres unmarked) [Compound 7, toonaciliatone F]",87.3 ± 4%,92.9 ± 2.11%,> 99.9%,> 99.9%,> 99.9%,> 99.9%,95.9 ± 2.19%,
"CC(=O)O[C@H]1[C@@H](OC(C)=O)[C@]2(C)[C@H](CCC3=C(c4ccoc4)C[C@@H](O)[C@]32C)[C@@]2(C)C=CC(=O)C(C)(C)[C@H]12 [Compound 8, toonaciliatone C]",,,94 ± 9.84%,> 99.9%,,,,"viability at 18 h, 20 µM ([1]; HEK-Blue hTLR4 cells, 20 µM, 18 h, LPS 10 ng/mL, read-out: Viability Cell (%) HEK-Blue hTLR4 LPS-Induced (10 ng/mL)): 88 ± 6.37%; viability at 18 h, 20 µM ([1]; HEK-Blue hTLR4 cells, 20 µM, 18 h, without LPS, read-out: Viability Cell (%) HEK-Blue hTLR4 Without LPS): > 99.9%; viability at 5 µM (in vitro; [8]): 89.5 ± 9.38%; viability at 10 µM (in vitro; [9]): 94.75 ± 0.32%; viability at 20 µM (in vitro; [10]): 87.5 ± 3.33%"
"CC(=O)O[C@H]1[C@@H](OC(C)=O)[C@]2(C)[C@H](CC[C@@]3(C)[C@H](c4ccoc4)C(=O)[C@H]4O[C@@]423)[C@@]2(C)C=CC(=O)C(C)(C)[C@H]12 [Compound 10, 6α-acetylepoxyazadirone]",> 99.9%,> 99.9%,> 99.9%,> 99.9%,93.2 ± 4.2%,82.1 ± 1.31%,86.1 ± 4.07%,
"C[C@]12C3=CC[C@@H](c4ccoc4)[C@]3(C)CC[C@@H]1[C@@]1(C)C(=O)C=C[C@@]3(C)CO[C@@H]([C@H]2O)[C@H]13 [Compound 12, ceramicine B]",> 99.9%,> 99.9%,96.7 ± 4.3%,> 99.9%,> 99.9%,> 99.9%,89.4 ± 6.9%,"Effect on p-p38 MAPK levels (phosphorylated-p38 MAPK): significantly suppressed; IC50 (TNF-α): 13.9 µM; TNF-α SI (selectivity index, CC50/IC50) (TNF-α; THP-1 CC50 / TNF-α IC50): 2.66; CC50 at 18 h [2]: 36.9 µM"
"C[C@]12C3=CC[C@@H](C4=CC(O)OC4=O)[C@]3(C)CC[C@@H]1[C@@]1(C)C(=O)C=C[C@@]3(C)CO[C@@H]([C@H]2O)[C@H]13 (some centres unmarked) [Compound 14, pentandricine]",> 99.9%,> 99.9%,91.1 ± 9.03%,> 99.9%,> 99.9%,88.2 ± 3.86%,91.3 ± 4.19%,IC50 [3]: < 20 µM
"C[C@@H]1C[C@H]2[C@@H]3CCC4=CC(=O)C=C[C@]4(C)[C@@]3(F)[C@@H](O)C[C@]2(C)[C@@]1(O)C(=O)CO [Dex, dexamethasone, reference compound]",,,,,,,,"IC50 (TNF-α; LPS-stimulated (10 ng/mL) THP-1 cells, 1, 5, 10, 20 µM, 18 h): 2.17 µM; IC50 (MCP-1): 0.5 µM; IC50 (IL-6): 0.72 µM; CC50 at 18 h [2]: 28.2 µM"
"COc1cc([C@@H]2c3cc4c(cc3[C@@H](O[C@@H]3O[C@@H]5CO[C@@H](C)O[C@H]5[C@H](O)[C@H]3O)[C@H]3COC(=O)[C@H]23)OCO4)cc(OC)c1O [Etoposide, reference compound]",,,,,,,,viability at 5 µM (in vitro; [8]): 67.5 ± 2.36%; viability at 10 µM (in vitro; [9]): 54.8 ± 2.58%; viability at 20 µM (in vitro; [10]): 38.9 ± 3.19%
